Read-outs that look alike come from different tables or passages of the source.
Key:
[1] = target: T1, WEE1 (Homo sapiens, UniProt P30291+Q96SW2); test: WEE1-ePL degradation assay (LentiX-WEE1-ePL-GSPT1-ND cells, InCELL Hunter luminescence, 4 h); type: cell-based; conditions: 293T-LentiX WEE1-ePL cells; for DC50: read-out: 293T-LentiX WEE1-ePL Degradation 4 hr (EC50)
T1 construct: C-terminal ePL-tagged (DiscoverX, Fremont, CA) full-length WEE1 expression construct; expressed in transfected cells; host or cells: LentiX-HEK293T (Invitrogen), lentiviral transduction; co-expressing GSPT1-GN (G576N, lacking the first 158 amino acids)
In short: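 HEK293T cells stably expressing C-terminal ePL-tagged full-length WEE1, 2500 cells/well, treated 4 h at 37° C with a 10-point 3-fold series from 1 or 10 uM. Remaining WEE1-ePL read by InCELL Hunter luminescence after 30 min. EC50 came from a four-parameter logistic fit, with Ymax set from DMSO control.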

[2] = tested on: MKN45 cells; test: MKN45 cell proliferation assay (Cell-Titer-Glo, 120 h); type: cell-based; conditions: for EC50: Homo sapiens, MKN-45, 120 h, Cell-Titer-Glo, read-out: MKN45 Cell Prolif. 120 hr (EC50); for MKN45 Cell Prolif. 120 hr (Ymin-Obs): minimal percent of DMSO control observed in the concentrations tested
In short: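 Growth inhibition was read as blank-corrected Cell-Titer-Glo luminescence expressed as percent DMSO control after 120 h at 37 C, 400 cells/well. Compounds tested in triplicate as 10-point half-log series from 1 or 10 uM, 0.1% DMSO; four-parameter fit gave EC50, and lowest observed percent control was reported as Ymin-obs.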

[3] = lower limit of the fit (0 = luciferase inhibitor, Ymax = DMSO control)
[4] = lower limit of the fit (Ymin=0 luciferase inhibitor, Ymax DMSO control)

Structure (SMILES)	293T-LentiX WEE1-ePL Degradation 4 hr (Ymin) [1, 3]	DC50 [1] [nM]	EC50 ([2]; growth inhibition) [nM]	MKN45 Cell Prolif. 120 hr (Ymin-Obs) [2]	293T-LentiX WEE1-ePL Degradation 4 hr (Ymin) [1, 4]	EC50 [2] [nM]
CO[C@@H]1CCCN(c2ccc3cc(CN4CC[C@H](Oc5ccc6c(c5)CN(C5CCC(=O)NC5=O)C6=O)C4)ccc3n2)C1 (stereo partly drawn) [3-(5-{[(3S)-1-({2-[(3R)-3-methoxypiperidin-1-yl]quinolin-6-yl}methyl)pyrrolidin-3-yl]oxy}-1-oxo-2,3-dihydro-1H-isoindol-2-yl)piperidine-2,6-dione]	34	4.32	3.91	6.79	–	–
Cc1cnc2ccc(CN3CC[C@H](Oc4ccc5c(c4)CN(C4CCC(=O)NC4=O)C5=O)C3)cc2c1 (stereo partly drawn) [3-(5-{[(3S)-1-[(3-methylquinolin-6-yl)methyl]pyrrolidin-3-yl]oxy}-1-oxo-2,3-dihydro-1H-isoindol-2-yl)piperidine-2,6-dione]	38.21	4.47	63.5	21.51	–	–
O=C1CCC(N2Cc3cc(O[C@H]4CCN(Cc5ccc6ncc(N7CCOCC7)cc6c5)C4)ccc3C2=O)C(=O)N1 (stereo partly drawn) [3-(5-{[(3S)-1-{[3-(morpholin-4-yl)quinolin-6-yl]methyl}pyrrolidin-3-yl]oxy}-1-oxo-2,3-dihydro-1H-isoindol-2-yl)piperidine-2,6-dione]	27	3.19	2.96	7.83	–	–
O=C1CCC(N2Cc3cc(O[C@H]4CCN(Cc5ccc6nc(NC7CCOCC7)ccc6c5)C4)ccc3C2=O)C(=O)N1 (stereo partly drawn) [3-(5-{[(3S)-1-({2-[(oxan-4-yl)amino]quinolin-6-yl}methyl)pyrrolidin-3-yl]oxy}-1-oxo-2,3-dihydro-1H-isoindol-2-yl)piperidine-2,6-dione]	37	10.6	4.27	7.78	–	–
O=C1CC[C@H](N2Cc3cc(O[C@H]4CCN(Cc5cc(Cl)c6nc(C7CCOCC7)ccc6c5)C4)ccc3C2=O)C(=O)N1 [(3S)-3-(5-{[(3S)-1-{[8-chloro-2-(oxan-4-yl)quinolin-6-yl]methyl}pyrrolidin-3-yl]oxy}-1-oxo-2,3-dihydro-1H-isoindol-2-yl)piperidine-2,6-dione]	–	1.1	–	10.22	29.99	4.44
O=C1CCC(N2Cc3cc(O[C@@H]4CN(Cc5ccc6nc([C@H]7CCOC7)ccc6c5)CC4(F)F)ccc3C2=O)C(=O)N1 (stereo partly drawn) [3-(5-{[(3R)-4,4-difluoro-1-({2-[(3R)-oxolan-3-yl]quinolin-6-yl}methyl)pyrrolidin-3-yl]oxy}-1-oxo-2,3-dihydro-1H-isoindol-2-yl)piperidine-2,6-dione]	–	8.49	–	8.764	30.81	8.42
O=C1CCC(N2Cc3cc(O[C@H]4CCN(Cc5cncc(C(F)(F)F)c5)C4)ccc3C2=O)C(=O)N1 (stereo partly drawn) [3-(1-oxo-5-{[(3S)-1-{[5-(trifluoromethyl)pyridin-3-yl]methyl}pyrrolidin-3-yl]oxy}-2,3-dihydro-1H-isoindol-2-yl)piperidine-2,6-dione]	33.76	36.9	842	54.82	–	–
CN(C)c1ccc2cc(CN3CC[C@H](Oc4ccc5c(c4)CN(C4CCC(=O)NC4=O)C5=O)C3)ccc2n1 (stereo partly drawn) [3-(5-{[(3S)-1-{[2-(dimethylamino)quinolin-6-yl]methyl}pyrrolidin-3-yl]oxy}-1-oxo-2,3-dihydro-1H-isoindol-2-yl)piperidine-2,6-dione]	26.59	2.71	20	12.34	–	–
O=C1CCC(N2Cc3cc(O[C@H]4CCN(Cc5cc6ccc(F)cc6cn5)C4)ccc3C2=O)C(=O)N1 (stereo partly drawn) [3-(5-{[(3S)-1-[(7-fluoroisoquinolin-3-yl)methyl]pyrrolidin-3-yl]oxy}-1-oxo-2,3-dihydro-1H-isoindol-2-yl)piperidine-2,6-dione]	28.82	4.93	24.8	10.88	–	–
N#Cc1ccc2cc(CN3CC[C@H](Oc4ccc5c(c4)CN(C4CCC(=O)NC4=O)C5=O)C3)ccc2n1 (stereo partly drawn) [6-{[(3S)-3-{[2-(2,6-dioxopiperidin-3-yl)-1-oxo-2,3-dihydro-1H-isoindol-5-yl]oxy}pyrrolidin-1-yl]methyl}quinoline-2-carbonitrile]	27.49	3.05	7.92	9.504	–	–
O=C1CCC(N2Cc3cc(O[C@H]4CCN(Cc5cc6cc([C@H]7CCOC7)ccc6cn5)C4)ccc3C2=O)C(=O)N1 (stereo partly drawn) [3-(1-oxo-5-{[(3S)-1-({6-[(3R)-oxolan-3-yl]isoquinolin-3-yl}methyl)pyrrolidin-3-yl]oxy}-2,3-dihydro-1H-isoindol-2-yl)piperidine-2,6-dione]	28	1.99	3.39	6.69	–	–
CNC1(c2ccc3cc(CN4CC[C@H](Oc5ccc6c(c5)CN(C5CCC(=O)NC5=O)C6=O)C4)ncc3c2)COC1 (stereo partly drawn) [3-(5-{[(3S)-1-({7-[3-(methylamino)oxetan-3-yl]isoquinolin-3-yl}methyl)pyrrolidin-3-yl]oxy}-1-oxo-2,3-dihydro-1H-isoindol-2-yl)piperidine-2,6-dione]	33	96.7	56.4	7.77	–	–
CNC1CCN(c2ccc3cc(CN4CC[C@H](Oc5ccc6c(c5)CN(C5CCC(=O)NC5=O)C6=O)C4)ccc3n2)CC1 (stereo partly drawn) [3-(5-{[(3S)-1-({2-[4-(methylamino)piperidin-1-yl]quinolin-6-yl}methyl)pyrrolidin-3-yl]oxy}-1-oxo-2,3-dihydro-1H-isoindol-2-yl)piperidine-2,6-dione]	–	64.4	–	25.09	38.12	84.9
O=C1CCC(N2Cc3cc(O[C@@H]4CN(Cc5ccc6nc([C@@H]7CCOC7)ccc6c5)C[C@H]4F)ccc3C2=O)C(=O)N1 (stereo partly drawn) [3-(5-{[(3R,4R)-4-fluoro-1-({2-[(3S)-oxolan-3-yl]quinolin-6-yl}methyl)pyrrolidin-3-yl]oxy}-1-oxo-2,3-dihydro-1H-isoindol-2-yl)piperidine-2,6-dione]	29.32	9.69	29.1	20.1	–	–
O=C1CCC(N2Cc3cc(O[C@H]4CCN(Cc5ccc6ncncc6c5)C4)ccc3C2=O)C(=O)N1 (stereo partly drawn) [3-(1-oxo-5-{[(3S)-1-[(quinazolin-6-yl)methyl]pyrrolidin-3-yl]oxy}-2,3-dihydro-1H-isoindol-2-yl)piperidine-2,6-dione]	36.57	57	284	20.44	–	–
O=C1CCC(N2Cc3ccc(O[C@H]4CCN(Cc5ccc6ncccc6c5)C4)cc3C2=O)C(=O)N1 (stereo partly drawn) [3-(1-oxo-6-{[(3S)-1-[(quinolin-6-yl)methyl]pyrrolidin-3-yl]oxy}-2,3-dihydro-1H-isoindol-2-yl)piperidine-2,6-dione]	88.79	–	14.6	82.37	–	–
CCc1ccc2cc(CN3CC[C@H](Oc4ccc5c(c4)CN(C4CCC(=O)NC4=O)C5=O)C3)ccc2n1 (stereo partly drawn) [3-(5-{[(3S)-1-[(2-ethylquinolin-6-yl)methyl]pyrrolidin-3-yl]oxy}-1-oxo-2,3-dihydro-1H-isoindol-2-yl)piperidine-2,6-dione]	27	3.02	25.2	12.49	–	–
O=C1CCC(N2Cc3cc(O[C@H]4CCN(Cc5ccc6ncccc6c5)C4)ccc3C2=O)C(=O)N1 (stereo partly drawn) [3-(1-oxo-5-{[(3S)-1-[(quinolin-6-yl)methyl]pyrrolidin-3-yl]oxy}-2,3-dihydro-1H-isoindol-2-yl)piperidine-2,6-dione]	28.66	3.45	30.4	14.87	–	–
O=C1CC[C@H](N2Cc3cc(O[C@H]4CCN(Cc5cc(C6CC6)c6nc(N7CCOCC7)ncc6c5)C4)ccc3C2=O)C(=O)N1 [(3S)-3-(5-{[(3S)-1-{[8-cyclopropyl-2-(morpholin-4-yl)quinazolin-6-yl]methyl}pyrrolidin-3-yl]oxy}-1-oxo-2,3-dihydro-1H-isoindol-2-yl)piperidine-2,6-dione]	–	2.5	–	2.136	42.1	2.28
CO[C@H]1CC[C@H](Nc2ccc3cc(CN4CC[C@H](Oc5ccc6c(c5)CN(C5CCC(=O)NC5=O)C6=O)C4)ccc3n2)CC1 (stereo partly drawn) [3-(1-oxo-5-{[(3S)-1-[(2-{[(1r,4r)-4-methoxycyclohexyl]amino}quinolin-6-yl)methyl]pyrrolidin-3-yl]oxy}-2,3-dihydro-1H-isoindol-2-yl)piperidine-2,6-dione]	32.5	6.28	5.05	8.26	–	–

Source: patent publication US20240067632A1, “WEE1 Degrading Compounds and Uses Thereof” (Bristol-Myers Squibb Company, priority 2022, published 2024)
